Source: publication PMC10509167, “Identification and characterization of endo-α-, exo-α-, and exo-β-D-arabinofuranosidases degrading lipoarabinomannan and arabinogalactan of mycobacteria” (Nature Communications, 2023)

Target: T1, EndoMA1 (MIAR_33230) (Microbacterium arabinogalactanolyticum, UniProt A0AAJ6N6D4)
T1 construct: 53,678 Da monomer, dimer; catalytic domain plus putative CBM
Test: X-ray crystallography ([…] Å)
Assay type: binding
Settings: co-crystallized with A9LT; second site, putative CBM domain; possible crystal packing artifact

T1 sequence (A0AAJ6N6D4 entry or part of it): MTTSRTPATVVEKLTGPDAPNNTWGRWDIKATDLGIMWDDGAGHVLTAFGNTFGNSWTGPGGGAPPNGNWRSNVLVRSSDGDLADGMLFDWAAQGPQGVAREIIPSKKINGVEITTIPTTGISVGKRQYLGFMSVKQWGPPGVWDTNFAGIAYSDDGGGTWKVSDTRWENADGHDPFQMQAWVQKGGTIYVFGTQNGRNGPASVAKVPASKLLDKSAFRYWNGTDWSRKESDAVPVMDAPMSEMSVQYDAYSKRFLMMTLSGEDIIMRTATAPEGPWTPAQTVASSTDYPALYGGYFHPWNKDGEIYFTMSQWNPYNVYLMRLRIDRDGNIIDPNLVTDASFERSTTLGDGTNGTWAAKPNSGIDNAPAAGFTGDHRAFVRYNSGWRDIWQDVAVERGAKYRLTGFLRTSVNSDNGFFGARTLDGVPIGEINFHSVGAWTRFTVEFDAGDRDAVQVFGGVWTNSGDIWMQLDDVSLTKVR

With `OC[C@H]1O[C@H](OC[C@H]2O[C@H](OC[C@H]3O[C@H](OC[C@H]4OC(O)[C@@H](O)[C@@H]4O)[C@@H](O)[C@@H]3O)[C@@H](O)[C@@H]2O)[C@@H](O)[C@@H]1O` (stereo partly shown) [A4L] the “X-ray crystallography (1.80 Å)” value was “The A4L molecule is bound to the shallow surface of the putative CBM domain”.
